For 8 compounds, MIC results are on record in ChEMBL document CHEMBL4251572, “Novel aminopyrimidinyl benzimidazoles as potentially antimicrobial agents: Design, synthesis and biological evaluation” (Eur J Med Chem, 2018).

The test system of one test is Saccharomyces cerevisiae. Briefly: Antifungal against Saccharomyces cerevisiae after 24 hrs by two fold serial dilution method. The class given is functional.
In another test the test system is Aspergillus flavus. The test can be described thus: Antifungal against Aspergillus flavus after 24 hrs by two fold serial dilution method. The class given is functional.
For the next test, the system named is Pichia norvegensis. The test can be described thus: Antifungal against Candida mycoderma after 24 hrs by two fold serial dilution method. The class given is functional.
Test [1] deals with Escherichia coli. The test can be described thus: Antibacterial activity against Escherichia coli DH52 after 24 hrs by micro broth dilution assay. The format is functional. The settings on record: DH52, 24 h. (Broth dilution looks for growth in wells or tubes with falling amounts of substance.)
The next test concerns Cyberlindnera jadinii. The test can be described thus: Antifungal against Candida utilis after 24 hrs by two fold serial dilution method. The format is functional. The settings on record: Williopsis jadinii.
The test system of another test is Shigella dysenteriae. Briefly: Antibacterial activity against Shigella dysenteriae after 24 hrs by micro broth dilution assay. The format is functional.
The next test concerns Micrococcus luteus. The test can be described thus: Antibacterial activity against Micrococcus luteus ATCC4698 after 24 hrs by micro broth dilution assay. The format is functional. The settings on record: ATCC4698, 24 h.
The subject of test [2] is Staphylococcus aureus. Briefly: Antibacterial activity against Staphylococcus aureus ATCC 25923 after 24 hrs by micro broth dilution assay. The class given is functional. As to conditions: ATCC 25923, 24 h.
In the next test the test system is Bacillus. Briefly: Antibacterial activity against Bacillus proteus ATCC 13315 after 24 hrs by micro broth dilution assay. The class given is functional. The settings on record: ATCC 13315, 24 h.
The next test concerns Candida albicans. Briefly: Antifungal against Candida albicans ATCC 76615 after 24 hrs by two fold serial dilution method. The class given is functional. The settings on record: ATCC 76615, 24 h.
Test [3] deals with Escherichia coli. The test can be described thus: Antibacterial activity against Escherichia coli JM109 after 24 hrs by micro broth dilution assay. The class given is functional. As to conditions: JM109, 24 h.
Another test has as its system Bacillus subtilis. Briefly: Antibacterial activity against Bacillus subtilis after 24 hrs by micro broth dilution assay. The class given is functional.
The next test has as its system Salmonella typhi. Briefly: Antibacterial activity against Bacillus typhi after 24 hrs by micro broth dilution assay. The class given is functional, Salmonella enterica subsp. enterica serovar Typhi. The settings on record: Salmonella enterica.
In the next test the test system is Pseudomonas aeruginosa. The test can be described thus: Antibacterial activity against Pseudomonas aeruginosa after 24 hrs by micro broth dilution assay. The format is functional.
For test [4], the system named is Staphylococcus aureus. The test can be described thus: Antibacterial activity against methicillin-resistant Staphylococcus aureus N315 after 24 hrs by micro broth dilution assay. The settings on record: N315, 24 h. The class given is functional.

≈ marks a conversion by molar mass, not a printed value.

Consider `CCCCn1c(C(=O)/C=C/c2ccc(C)cc2)nc2ccccc21`, for which the MIC – broadly, the least concentration at which growth counts as inhibited – in the test with Saccharomyces cerevisiae was 4 µg/mL (≈ 12.6 µM); against Aspergillus flavus it was 4 µg/mL (≈ 12.6 µM); in the test on Pichia norvegensis, 128 µg/mL (≈ 402 µM); against Escherichia coli [1], 512 µg/mL (≈ 1610 µM); against Cyberlindnera jadinii, 512 µg/mL (≈ 1610 µM); in the test on Shigella dysenteriae, 128 µg/mL (≈ 402 µM). The MIC against Micrococcus luteus was 32 µg/mL (≈ 100 µM); in the test with Staphylococcus aureus [2], 32 µg/mL (≈ 100 µM); in the test on Bacillus, 512 µg/mL (≈ 1610 µM); against Candida albicans it was 16 µg/mL (≈ 50.2 µM); in the test with Escherichia coli [3] it was 128 µg/mL (≈ 402 µM); in the test with Bacillus subtilis, 128 µg/mL (≈ 402 µM). Moreover, the MIC is 128 µg/mL (≈ 402 µM) against Salmonella typhi, 16 µg/mL (≈ 50.2 µM) against Pseudomonas aeruginosa and 64 µg/mL (≈ 201 µM) against Staphylococcus aureus [4].

On to `CCCCCCCn1c(-c2cc(-c3ccc(Cl)cc3)nc(N)n2)nc2ccccc21`, for which the MIC against Saccharomyces cerevisiae was 8 µg/mL (≈ 19 µM); against Aspergillus flavus, 256 µg/mL (≈ 610 µM); against Pichia norvegensis it was 16 µg/mL (≈ 38.1 µM); against Escherichia coli [1] it was 16 µg/mL (≈ 38.1 µM); with Cyberlindnera jadinii, 4 µg/mL (≈ 9.52 µM); with Shigella dysenteriae it was 4 µg/mL (≈ 9.52 µM). The MIC in the test with Micrococcus luteus came out at 512 µg/mL (≈ 1220 µM); against Staphylococcus aureus [2], 128 µg/mL (≈ 305 µM); against Bacillus it was 512 µg/mL (≈ 1220 µM); in the test with Candida albicans it was 128 µg/mL (≈ 305 µM); with Escherichia coli [3] it was 512 µg/mL (≈ 1220 µM); with Bacillus subtilis, 2 µg/mL (≈ 4.76 µM). Moreover, the MIC turned out to be 8 µg/mL (≈ 19 µM) in the test with Salmonella typhi, 64 µg/mL (≈ 152 µM) against Pseudomonas aeruginosa and 8 µg/mL (≈ 19 µM) with Staphylococcus aureus [4].

For `CCCCCCCn1c(C(=O)/C=C/c2ccc(Cl)cc2Cl)nc2ccccc21`, the MIC in the test on Saccharomyces cerevisiae worked out at 512 µg/mL (≈ 1230 µM); against Aspergillus flavus it was 512 µg/mL (≈ 1230 µM); in the test with Pichia norvegensis it was 512 µg/mL (≈ 1230 µM); against Escherichia coli [1], 512 µg/mL (≈ 1230 µM); with Cyberlindnera jadinii it was 512 µg/mL (≈ 1230 µM); in the test on Shigella dysenteriae, 256 µg/mL (≈ 616 µM). Further, the MIC against Micrococcus luteus amounted to 512 µg/mL (≈ 1230 µM); against Staphylococcus aureus [2], 128 µg/mL (≈ 308 µM); in the test on Bacillus, 512 µg/mL (≈ 1230 µM); against Candida albicans, 512 µg/mL (≈ 1230 µM); against Escherichia coli [3], 512 µg/mL (≈ 1230 µM); with Bacillus subtilis it was 512 µg/mL (≈ 1230 µM). In addition, the MIC with Salmonella typhi, with Pseudomonas aeruginosa and against Staphylococcus aureus [4] was 512 µg/mL (≈ 1230 µM) each time.

Consider `CCCCCCn1c(C(=O)/C=C/c2ccc(Cl)cc2Cl)nc2ccccc21`, for which the MIC against Saccharomyces cerevisiae, in the test with Aspergillus flavus, in the test with Pichia norvegensis, against Escherichia coli [1], against Cyberlindnera jadinii and against Shigella dysenteriae was 512 µg/mL (≈ 1280 µM) in each case. The MIC in the test with Micrococcus luteus was found to be 512 µg/mL (≈ 1280 µM); in the test with Staphylococcus aureus [2], 32 µg/mL (≈ 79.7 µM); in the test on Bacillus, 512 µg/mL (≈ 1280 µM); against Candida albicans it was 512 µg/mL (≈ 1280 µM); with Escherichia coli [3], 512 µg/mL (≈ 1280 µM); against Bacillus subtilis, 512 µg/mL (≈ 1280 µM). Also, the results for the MIC in the test with Salmonella typhi, against Pseudomonas aeruginosa and in the test with Staphylococcus aureus [4] were 512 µg/mL (≈ 1280 µM), 512 µg/mL (≈ 1280 µM) and 256 µg/mL (≈ 638 µM), respectively.

For `CCCCCCCCn1c(-c2cc(-c3ccc(F)cc3)nc(N)n2)nc2ccccc21`, the MIC came out at 16 µg/mL (≈ 38.3 µM) in the test on Saccharomyces cerevisiae; 128 µg/mL (≈ 307 µM) in the test with Aspergillus flavus; 64 µg/mL (≈ 153 µM) with Pichia norvegensis; 512 µg/mL (≈ 1230 µM) against Escherichia coli [1]; 8 µg/mL (≈ 19.2 µM) in the test on Cyberlindnera jadinii; 512 µg/mL (≈ 1230 µM) in the test on Shigella dysenteriae. For the same compound, the MIC in the test with Micrococcus luteus was 32 µg/mL (≈ 76.6 µM); with Staphylococcus aureus [2] it was 256 µg/mL (≈ 613 µM); against Bacillus it was 512 µg/mL (≈ 1230 µM); in the test with Candida albicans it was 256 µg/mL (≈ 613 µM); in the test with Escherichia coli [3], 256 µg/mL (≈ 613 µM); in the test with Bacillus subtilis it was 256 µg/mL (≈ 613 µM). Moreover, the MIC with Salmonella typhi is 512 µg/mL (≈ 1230 µM); against Pseudomonas aeruginosa, 512 µg/mL (≈ 1230 µM); with Staphylococcus aureus [4], 256 µg/mL (≈ 613 µM).

Regarding `CCCCCCCCn1c(C(=O)/C=C/c2ccc(F)cc2)nc2ccccc21`, the MIC in the test with Saccharomyces cerevisiae came to 512 µg/mL (≈ 1350 µM); against Aspergillus flavus, 256 µg/mL (≈ 676 µM); with Pichia norvegensis it was 512 µg/mL (≈ 1350 µM); in the test on Escherichia coli [1], 8 µg/mL (≈ 21.1 µM); against Cyberlindnera jadinii, 64 µg/mL (≈ 169 µM); against Shigella dysenteriae it was 512 µg/mL (≈ 1350 µM). Further, the MIC was determined as 32 µg/mL (≈ 84.5 µM) in the test on Micrococcus luteus; 512 µg/mL (≈ 1350 µM) against Staphylococcus aureus [2]; 512 µg/mL (≈ 1350 µM) against Bacillus; 512 µg/mL (≈ 1350 µM) against Candida albicans; 512 µg/mL (≈ 1350 µM) against Escherichia coli [3]; 16 µg/mL (≈ 42.3 µM) in the test on Bacillus subtilis. The MIC was 128 µg/mL (≈ 338 µM) against Salmonella typhi, 512 µg/mL (≈ 1350 µM) with Pseudomonas aeruginosa and 512 µg/mL (≈ 1350 µM) against Staphylococcus aureus [4].

In the case of `CCCCCCn1c(-c2cc(-c3ccc(F)cc3)nc(N)n2)nc2ccccc21`, the MIC in the test with Saccharomyces cerevisiae amounted to 512 µg/mL (≈ 1310 µM); in the test with Aspergillus flavus it was 512 µg/mL (≈ 1310 µM); in the test with Pichia norvegensis, 4 µg/mL (≈ 10.3 µM); against Escherichia coli [1], 512 µg/mL (≈ 1310 µM); with Cyberlindnera jadinii, 8 µg/mL (≈ 20.5 µM); against Shigella dysenteriae, 512 µg/mL (≈ 1310 µM). In addition, the MIC against Micrococcus luteus amounted to 16 µg/mL (≈ 41.1 µM); with Staphylococcus aureus [2] it was 512 µg/mL (≈ 1310 µM); against Bacillus, 128 µg/mL (≈ 329 µM); against Candida albicans it was 256 µg/mL (≈ 657 µM); against Escherichia coli [3], 512 µg/mL (≈ 1310 µM); in the test with Bacillus subtilis, 512 µg/mL (≈ 1310 µM). The MIC in the test with Salmonella typhi came to 32 µg/mL (≈ 82.2 µM); against Pseudomonas aeruginosa, 128 µg/mL (≈ 329 µM); in the test with Staphylococcus aureus [4], 256 µg/mL (≈ 657 µM).

In the case of `CCCCCCCCn1c(-c2cc(-c3ccc(Cl)cc3)nc(N)n2)nc2ccccc21`, the MIC in the test on Saccharomyces cerevisiae was determined as 8 µg/mL (≈ 18.4 µM); in the test on Aspergillus flavus it was 256 µg/mL (≈ 590 µM); against Pichia norvegensis it was 8 µg/mL (≈ 18.4 µM); against Escherichia coli [1], 512 µg/mL (≈ 1180 µM); against Cyberlindnera jadinii it was 8 µg/mL (≈ 18.4 µM); against Shigella dysenteriae, 32 µg/mL (≈ 73.7 µM). Further, the MIC was found to be 16 µg/mL (≈ 36.9 µM) in the test on Micrococcus luteus; 256 µg/mL (≈ 590 µM) against Staphylococcus aureus [2]; 256 µg/mL (≈ 590 µM) in the test with Bacillus; 8 µg/mL (≈ 18.4 µM) in the test on Candida albicans; 512 µg/mL (≈ 1180 µM) against Escherichia coli [3]; 2 µg/mL (≈ 4.61 µM) against Bacillus subtilis. The MIC with Salmonella typhi stood at 4 µg/mL (≈ 9.22 µM); against Pseudomonas aeruginosa, 32 µg/mL (≈ 73.7 µM); against Staphylococcus aureus [4], 128 µg/mL (≈ 295 µM).
